Test: Estrogen receptor binding affinity using [3H]estradiol in a competitive radioreceptor binding assay.

| relative binding affinity (RBA) | Structure (SMILES) |
| --- | --- |
| 3.9 | CCC(c1ccc(O)cc1)C(CSCCCCNc1ccc([N+](=O)[O-])c2nonc12)c1ccc(O)cc1 (stereo unspecified) |
| 61.6 | CCCCSCC(c1ccc(O)cc1)C(CC)c1ccc(O)cc1 (stereo unspecified) |
| 3.6 | CCC(c1ccc(O)cc1)C(CSCCCCN1C(=O)c2ccccc2C1=O)c1ccc(O)cc1 (stereo unspecified) |
| 0.85 | CCC(c1ccc(O)cc1)C(CSCCNc1ccc([N+](=O)[O-])c2nonc12)c1ccc(O)cc1 (stereo unspecified) |
| 1.5 | CCC(c1ccc(O)cc1)C(CC)c1ccc(O)c(CCCNc2ccc([N+](=O)[O-])c3nonc23)c1 (stereo unspecified) |
| 2.6 | CCC(c1ccc(O)cc1)C(CSCCCCCCCNS(=O)(=O)c1cccc2c(N(C)C)cccc12)c1ccc(O)cc1 (stereo unspecified) |
| 4.3 | CCC(c1ccc(O)cc1)C(CSCCCNc1ccc([N+](=O)[O-])c2nonc12)c1ccc(O)cc1 (stereo unspecified) |
| 3.4 | CCC(c1ccc(O)cc1)C(CSCCCCCCCNc1ccc([N+](=O)[O-])c2nonc12)c1ccc(O)cc1 (stereo unspecified) |
| 16.2 | CCC(c1ccc(O)cc1)C(CCO)c1ccc(O)cc1 (stereo unspecified) |
| 3.5 | CCC(c1ccc(O)cc1)C(CSCCCCCNc1ccc([N+](=O)[O-])c2nonc12)c1ccc(O)cc1 (stereo unspecified) |
| 1 | CCC(c1ccc(O)cc1)C(CC)c1ccc(O)c(CCCNc2ccc([N+](=O)[O-])cc2[N+](=O)[O-])c1 (stereo unspecified) |
| 60 | CCC(c1ccc(O)cc1)C(CCI)c1ccc(O)cc1 (stereo unspecified) |
| 1.6 | CCC(c1ccc(O)cc1)C(CSCCCCCCCN1C(=O)c2ccccc2C1=O)c1ccc(O)cc1 (stereo unspecified) |
| 2.9 | CCC(c1ccc(O)cc1)C(CSCCCCCCNc1ccc([N+](=O)[O-])c2nonc12)c1ccc(O)cc1 (stereo unspecified) |
| 23.4 | CCCCSCCC(c1ccc(O)cc1)C(CC)c1ccc(O)cc1 (stereo unspecified) |

Further lines, the compound ahead of its results:

| Structure (SMILES) | relative binding affinity (RBA) |
| --- | --- |
| CCC(c1ccc(O)cc1)C(CC)c1ccc(O)c(CCCN2C(=O)c3cccc([N+](=O)[O-])c3C2=O)c1 (stereo unspecified) | 3 |
| CCCCCOC(=O)CC(c1ccc(O)cc1)C(CC)c1ccc(O)cc1 (stereo unspecified) | 4.2 |
| CCCCCOC(=O)C(c1ccc(O)cc1)C(CC)c1ccc(O)cc1 (stereo unspecified) | 39 |
| CCC(c1ccc(O)cc1)C(CC(=O)OC)c1ccc(O)cc1 (stereo unspecified) | 20 |
| CCC(c1ccc(O)cc1)C(CC)c1ccc(O)c(CCCN2C(=O)c3ccccc3C2=O)c1 (stereo unspecified) | 5.4 |
| CCC(c1ccc(O)cc1)C(CC)c1ccc(O)c(CCCOC)c1 (stereo unspecified) | 13.2 |
| CCC(c1ccc(O)cc1)C(CI)c1ccc(O)cc1 (stereo unspecified) | 172 |
| CCC(c1ccc(O)cc1)C(CC)c1ccc(O)c(CCCO)c1 (stereo unspecified) | 12 |
| CCCCSCCCc1cc(C(CC)C(CC)c2ccc(O)cc2)ccc1O (stereo unspecified) | 3.6 |
| CCC(c1ccc(O)cc1)C(C)c1ccc(O)cc1 (stereo unspecified) | 133 |
| CCC(c1ccc(O)cc1)C(CC)c1ccc(O)c(I)c1 (stereo unspecified) | 37 |
| CCC(c1ccc(O)cc1)C(COCCOCCCl)c1ccc(O)cc1 (stereo unspecified) | 6.7 |
| CCC(c1ccc(O)cc1)C(CC)c1ccc(O)c(CCCN2C(=O)c3cccc(N)c3C2=O)c1 (stereo unspecified) | 7.4 |
| CCC(c1ccc(O)cc1)C(CC)c1ccc(O)c(CCCOc2ccc([N+](=O)[O-])cc2[N+](=O)[O-])c1 (stereo unspecified) | 1.7 |
| CCC(c1ccc(O)cc1)C(CC)c1ccc(O)c(CCCNS(=O)(=O)c2cccc3c(N(C)C)cccc23)c1 (stereo unspecified) | 1.3 |
| CCC(c1ccc(O)cc1)C(C(=O)OC)c1ccc(O)cc1 (stereo unspecified) | 69 |
| CCC(c1ccc(O)cc1)C(CCOCCOCCCl)c1ccc(O)cc1 (stereo unspecified) | 16.6 |
| CCC(c1ccc(O)cc1)C(CC)c1ccc(O)c(CCCOCc2ccccc2)c1 (stereo unspecified) | 5 |
| CCC(c1ccc(O)cc1)C(CO)c1ccc(O)cc1 (stereo unspecified) | 8.9 |
| C=CCc1cc(C(CC)C(CC)c2ccc(O)cc2)ccc1O (stereo unspecified) | 54 |
| CCC(c1ccc(O)cc1)C(CC)c1ccc(O)c(N=[N+]=[N-])c1 (stereo unspecified) | 69 |

— ChEMBL document CHEMBL1123662, “Preparation, receptor binding, and fluorescence properties of hexestrol-fluorophore conjugates: evaluation of site of attachment, fluorophore structure, and fluorophore-ligand spacing” (J Med Chem, 1987)
